Measured values published in US20170008888A1 (KYORIN PHARMACEUTICAL CO., LTD., priority 2014, published 2017).

Assays:
Format in all cases: binding
ERK5 = molecular target: T1, ERK5 (Homo sapiens, UniProt Q13164); assay: Probe-based (AX9989 acyl phosphate ATP probe) kinase profiling in Jurkat lysate: ERK5; conditions: for IC50: calculated from percent inhibition of AX9989 labeling and the screening concentration, Jurkat lysate; for inhibition at 0.1 µM: screening concentration 0.1 μM; for inhibition at 0.1 µM / inhibition at 1 µM: read-out: Kinase inhibition % at indicated screening concentration: ERK5; for inhibition at 1 µM: screening concentration 1.0 μM
T1 construct: screened for activity against several kinases in Jurkat cells; endogenous in cells; host or cells: Jurkat cell lysate
In short: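 ERK5 IC50 values came from percent inhibition at the screening concentration, measured as loss of LC/MS signal of probe-labelled active-site peptides. Compound was added for 15 min at room temperature to Jurkat lysate (5 mg/ml, 20 mM MnCl2) before labelling with AX9989 ATP acyl phosphate probe at 5 μM.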

[1] = molecular target: T2, BRD4 bromodomain domain I [BRD4(1)] (Homo sapiens, UniProt O60885); assay: BRD4 bromodomain domain 1 inhibition assay (TR-FRET); conditions: screening concentration 10 μM
T2 construct: BRD4 bromodomain domain I [BRD4(1)]; purchased Cayman Chemicals
In short: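 0.5% DMSO, in triplicate, using Cayman BRD4(1) TR-FRET protocol with slight modification. 670/620 nm ratio normalized to 10 μM JQ1, with DMSO control set as 0% inhibition.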

ACK = molecular target: T3, ACK (Homo sapiens, UniProt Q07912); assay: Probe-based (AX9989) kinase profiling in Jurkat lysate: ACK; conditions: read-out: Kinase inhibition % at indicated screening concentration: ACK; for inhibition at 0.1 µM: screening concentration 0.1 μM; for inhibition at 1 µM: screening concentration 1.0 μM
T3 construct: screened for activity against several kinases in Jurkat cells; endogenous in cells; host or cells: Jurkat cell lysate
In short: (§1)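 Read-out: LC/MS intensity of desthiobiotinylated kinase active-site peptides, percent inhibition normalized to no-compound lysate. Jurkat lysate with 20 mM MnCl2 received compound for 15 min at room temperature, then 5 μM AX9989 probe; duplicates.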

TAO2 = molecular target: T4, TAO2 (Homo sapiens, UniProt Q9UL54); assay: Probe-based (AX9989) kinase profiling in Jurkat lysate: TAO2; conditions: read-out: Kinase inhibition % at indicated screening concentration: TAO2; for inhibition at 0.1 µM: screening concentration 0.1 μM; for inhibition at 1 µM: screening concentration 1.0 μM
T4 construct: screened for activity against several kinases in Jurkat cells; endogenous in cells; host or cells: Jurkat cell lysate
T4 sequence (Q9UL54 1-1235): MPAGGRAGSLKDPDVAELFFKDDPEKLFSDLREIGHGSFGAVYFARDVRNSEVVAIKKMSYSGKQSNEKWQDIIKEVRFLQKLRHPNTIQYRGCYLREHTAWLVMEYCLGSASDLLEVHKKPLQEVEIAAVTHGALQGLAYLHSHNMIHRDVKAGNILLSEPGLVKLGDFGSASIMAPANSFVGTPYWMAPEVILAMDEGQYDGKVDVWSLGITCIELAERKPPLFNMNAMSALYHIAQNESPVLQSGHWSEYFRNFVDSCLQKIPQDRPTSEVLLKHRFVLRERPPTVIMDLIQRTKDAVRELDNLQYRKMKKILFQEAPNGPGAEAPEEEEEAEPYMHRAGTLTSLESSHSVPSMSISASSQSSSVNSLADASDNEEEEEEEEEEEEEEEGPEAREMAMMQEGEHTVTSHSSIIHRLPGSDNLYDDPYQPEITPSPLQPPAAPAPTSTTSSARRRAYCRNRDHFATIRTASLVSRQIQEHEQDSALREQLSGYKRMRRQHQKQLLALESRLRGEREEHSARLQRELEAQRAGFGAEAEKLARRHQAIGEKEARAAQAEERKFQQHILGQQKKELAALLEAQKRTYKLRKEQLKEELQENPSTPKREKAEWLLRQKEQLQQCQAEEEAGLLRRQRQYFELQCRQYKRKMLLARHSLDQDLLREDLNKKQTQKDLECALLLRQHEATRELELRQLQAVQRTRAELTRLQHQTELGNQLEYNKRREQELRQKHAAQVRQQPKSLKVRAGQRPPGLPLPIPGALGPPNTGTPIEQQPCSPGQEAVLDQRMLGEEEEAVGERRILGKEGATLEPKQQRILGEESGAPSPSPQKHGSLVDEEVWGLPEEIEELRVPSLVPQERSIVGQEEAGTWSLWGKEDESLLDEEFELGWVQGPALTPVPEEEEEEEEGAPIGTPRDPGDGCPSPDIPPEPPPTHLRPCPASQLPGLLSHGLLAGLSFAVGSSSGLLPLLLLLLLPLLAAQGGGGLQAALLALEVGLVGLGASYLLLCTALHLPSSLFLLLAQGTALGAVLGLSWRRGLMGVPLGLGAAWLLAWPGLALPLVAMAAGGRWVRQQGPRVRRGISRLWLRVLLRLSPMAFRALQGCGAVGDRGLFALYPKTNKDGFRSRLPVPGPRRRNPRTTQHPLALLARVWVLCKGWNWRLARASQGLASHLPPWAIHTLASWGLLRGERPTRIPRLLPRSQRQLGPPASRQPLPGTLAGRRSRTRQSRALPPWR
In short: as §1

AurB or AurC = assay: Probe-based (AX9989) kinase profiling in Jurkat lysate: AurB or AurC
In short: as §1

JAK1 = molecular target: T5, JAK1 (Homo sapiens, UniProt P23458); assay: Probe-based (AX9989) kinase profiling in Jurkat lysate: JAK1; conditions: read-out: Kinase inhibition % at indicated screening concentration: JAK1; for inhibition at 0.1 µM: screening concentration 0.1 μM; for inhibition at 1 µM: screening concentration 1.0 μM
T5 construct: screened for activity against several kinases in Jurkat cells; endogenous in cells; host or cells: Jurkat cell lysate
In short: as §1

T5 sequence (P23458 whole entry): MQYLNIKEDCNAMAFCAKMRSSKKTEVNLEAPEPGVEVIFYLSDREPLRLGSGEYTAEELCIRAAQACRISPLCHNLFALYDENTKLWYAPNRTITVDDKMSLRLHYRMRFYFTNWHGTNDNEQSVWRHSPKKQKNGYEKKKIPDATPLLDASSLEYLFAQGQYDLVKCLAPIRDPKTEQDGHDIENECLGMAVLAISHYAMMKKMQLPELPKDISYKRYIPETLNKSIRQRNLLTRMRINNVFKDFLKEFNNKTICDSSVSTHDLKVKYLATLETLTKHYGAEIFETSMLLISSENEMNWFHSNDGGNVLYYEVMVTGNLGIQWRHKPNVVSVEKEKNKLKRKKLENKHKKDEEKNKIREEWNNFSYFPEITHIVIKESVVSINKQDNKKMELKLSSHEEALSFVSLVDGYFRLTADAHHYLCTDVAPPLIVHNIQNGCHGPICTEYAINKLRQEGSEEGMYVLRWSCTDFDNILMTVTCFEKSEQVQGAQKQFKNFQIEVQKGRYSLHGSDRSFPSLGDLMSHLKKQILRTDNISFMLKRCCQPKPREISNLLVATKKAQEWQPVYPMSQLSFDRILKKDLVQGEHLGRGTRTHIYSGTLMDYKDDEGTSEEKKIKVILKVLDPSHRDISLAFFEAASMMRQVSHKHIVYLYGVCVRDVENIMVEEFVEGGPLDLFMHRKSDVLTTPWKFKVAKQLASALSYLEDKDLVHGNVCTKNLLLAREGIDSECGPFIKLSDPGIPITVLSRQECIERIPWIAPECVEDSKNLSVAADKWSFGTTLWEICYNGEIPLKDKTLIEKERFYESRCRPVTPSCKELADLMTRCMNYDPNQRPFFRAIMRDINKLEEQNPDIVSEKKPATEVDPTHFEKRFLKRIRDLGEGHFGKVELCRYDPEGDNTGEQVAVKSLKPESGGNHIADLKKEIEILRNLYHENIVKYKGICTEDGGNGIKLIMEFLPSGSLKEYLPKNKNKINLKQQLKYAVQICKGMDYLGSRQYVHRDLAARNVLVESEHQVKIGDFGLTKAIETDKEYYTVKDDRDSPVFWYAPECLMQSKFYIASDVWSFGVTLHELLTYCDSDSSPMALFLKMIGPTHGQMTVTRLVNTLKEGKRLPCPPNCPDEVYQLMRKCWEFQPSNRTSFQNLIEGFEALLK
T1 sequence (Q13164 whole entry): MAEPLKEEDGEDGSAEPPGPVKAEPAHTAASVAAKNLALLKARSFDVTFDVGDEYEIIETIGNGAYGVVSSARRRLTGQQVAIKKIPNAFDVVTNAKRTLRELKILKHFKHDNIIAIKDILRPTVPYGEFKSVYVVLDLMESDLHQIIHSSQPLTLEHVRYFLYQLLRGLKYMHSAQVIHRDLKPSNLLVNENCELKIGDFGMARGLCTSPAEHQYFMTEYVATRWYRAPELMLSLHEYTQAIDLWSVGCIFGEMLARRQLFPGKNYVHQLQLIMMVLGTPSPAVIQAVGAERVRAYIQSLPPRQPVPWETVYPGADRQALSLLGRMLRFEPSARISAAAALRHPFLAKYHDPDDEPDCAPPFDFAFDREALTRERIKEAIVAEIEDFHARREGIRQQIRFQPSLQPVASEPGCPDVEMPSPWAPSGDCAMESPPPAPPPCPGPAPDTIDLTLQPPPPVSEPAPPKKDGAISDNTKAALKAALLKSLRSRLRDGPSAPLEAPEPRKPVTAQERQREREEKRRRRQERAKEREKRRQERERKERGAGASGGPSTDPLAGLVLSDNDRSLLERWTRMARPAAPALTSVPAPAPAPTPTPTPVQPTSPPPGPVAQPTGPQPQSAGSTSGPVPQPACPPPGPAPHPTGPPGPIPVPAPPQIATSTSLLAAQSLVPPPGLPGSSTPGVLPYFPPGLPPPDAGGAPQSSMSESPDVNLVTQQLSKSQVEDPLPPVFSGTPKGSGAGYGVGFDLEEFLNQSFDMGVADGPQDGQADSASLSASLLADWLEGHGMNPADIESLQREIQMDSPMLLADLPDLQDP
T3 sequence (Q07912 whole entry): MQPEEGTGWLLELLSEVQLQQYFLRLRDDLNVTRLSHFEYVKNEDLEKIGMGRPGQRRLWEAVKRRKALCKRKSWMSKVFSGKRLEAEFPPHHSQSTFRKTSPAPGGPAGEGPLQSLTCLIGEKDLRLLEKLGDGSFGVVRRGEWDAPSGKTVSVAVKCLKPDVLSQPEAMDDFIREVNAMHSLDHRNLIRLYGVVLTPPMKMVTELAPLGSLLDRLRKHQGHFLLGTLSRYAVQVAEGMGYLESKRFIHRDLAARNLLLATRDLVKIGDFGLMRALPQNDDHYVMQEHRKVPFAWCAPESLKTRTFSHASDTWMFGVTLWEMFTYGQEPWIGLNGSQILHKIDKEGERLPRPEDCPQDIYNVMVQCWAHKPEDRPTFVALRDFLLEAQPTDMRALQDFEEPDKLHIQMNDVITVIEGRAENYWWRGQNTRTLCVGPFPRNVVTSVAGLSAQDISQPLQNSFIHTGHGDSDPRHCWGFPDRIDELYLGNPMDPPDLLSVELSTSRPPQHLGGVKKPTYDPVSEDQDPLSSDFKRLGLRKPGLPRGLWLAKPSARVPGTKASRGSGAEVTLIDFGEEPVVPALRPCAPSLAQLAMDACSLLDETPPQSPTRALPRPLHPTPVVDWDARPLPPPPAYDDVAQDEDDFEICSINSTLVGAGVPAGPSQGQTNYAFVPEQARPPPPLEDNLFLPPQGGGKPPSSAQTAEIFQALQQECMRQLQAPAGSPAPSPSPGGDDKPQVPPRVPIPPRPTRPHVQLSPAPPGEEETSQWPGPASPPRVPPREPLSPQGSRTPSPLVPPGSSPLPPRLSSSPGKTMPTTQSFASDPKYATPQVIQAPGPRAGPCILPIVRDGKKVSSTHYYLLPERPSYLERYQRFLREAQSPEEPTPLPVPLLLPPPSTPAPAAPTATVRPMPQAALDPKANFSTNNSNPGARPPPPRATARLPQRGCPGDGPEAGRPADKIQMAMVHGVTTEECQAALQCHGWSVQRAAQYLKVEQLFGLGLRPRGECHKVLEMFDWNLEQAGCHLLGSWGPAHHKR

IC50 (ERK5) [µM] | inhibition at 0.1 µM (ERK5) [%] | inhibition at 10 µM [1] [%] | inhibition at 0.1 µM (ACK) [%] | inhibition at 0.1 µM (TAO2) [%] | Kinase inhibition % at indicated screening concentration: AurB or AurC (AurB or AurC; screening concentration 0.1 μM) | inhibition at 0.1 µM (JAK1) [%] | inhibition at 1 µM (ERK5) [%] | inhibition at 1 µM (ACK) [%] | inhibition at 1 µM (TAO2) [%] | Kinase inhibition % at indicated screening concentration: AurB or AurC (AurB or AurC; screening concentration 1.0 μM) | inhibition at 1 µM (JAK1) [%] | Compound
≤ 0.05 | > 90 | > 85 | ≤ 35 | ≤ 35 | E (E is ≦35%) | ≤ 35 |  |  |  |  |  | CCOc1cc(C(=O)N2CC[C@@H](N3CCCCC3)C2)ccc1Nc1cc2c(cn1)N(C)C(=O)c1occc1N2C [Compound 56]
0.101 to 0.5 |  | < 70 |  |  |  |  | 50 to 75 | ≤ 35 | ≤ 35 | E (E is ≦35%) | ≤ 35 | CCOc1cc(C(=O)NCC2CC2)ccc1Nc1cc2c(cn1)N(C)C(=O)c1ccccc1N2C [Compound 57]
0.05 to 0.1 |  | > 85 |  |  |  |  | > 90 | ≤ 35 | ≤ 35 | E (E is ≦35%) | ≤ 35 | CCOc1cc(C(=O)N2CCC(N3CCN(C)CC3)CC2)ccc1Nc1cc2c(cn1)N(C)C(=O)c1ccccc1N2C [Compound 61]
≤ 0.05 |  | 70 to 85 |  |  |  |  | > 90 | ≤ 35 | ≤ 35 | E (E is ≦35%) | ≤ 35 | CCOc1cc(C(=O)N2CCNCC2)ccc1Nc1cc2c(cn1)N(C)C(=O)c1ccccc1N2C [Compound 62]
0.05 to 0.1 |  | 70 to 85 |  |  |  |  | > 90 | ≤ 35 | ≤ 35 | E (E is ≦35%) | ≤ 35 | CCOc1cc(C(=O)N2CCC(OC)CC2)ccc1Nc1cc2c(cn1)N(C)C(=O)c1ccccc1N2C [Compound 63]
0.101 to 0.5 |  | < 70 |  |  |  |  | 75 to 90 | ≤ 35 | ≤ 35 | E (E is ≦35%) | ≤ 35 | CN1C(=O)c2ccccc2N(C)c2cc(NC3CCC(C(=O)NC4CCOCC4)CC3)ncc21 (centres unmarked) [Compound 64]
≤ 0.05 | > 90 | > 85 | ≤ 35 | ≤ 35 | E (E is ≦35%) | ≤ 35 |  |  |  |  |  | CCOc1cc(C(=O)N2CCC(N3CCN(C)CC3)CC2)ccc1Nc1cc2c(cn1)N(C)C(=O)c1occc1N2C [Compound 65]
> 0.5 |  | < 70 |  |  |  |  | 50 to 75 | ≤ 35 | ≤ 35 | E (E is ≦35%) | ≤ 35 | CCOc1cc(C(=O)NCCO)ccc1Nc1cc2c(cn1)N(C)C(=O)c1ccccc1N2C [Compound 66]
≤ 0.05 | > 90 | > 85 | ≤ 35 | ≤ 35 | E (E is ≦35%) | ≤ 35 |  |  |  |  |  | CCOc1cc(C(=O)N2CC[C@@H](N(CC)CC)C2)ccc1Nc1cc2c(cn1)N(C)C(=O)c1occc1N2C [Compound 67]
0.101 to 0.5 |  | < 70 |  |  |  |  | 50 to 75 | ≤ 35 | ≤ 35 | E (E is ≦35%) | ≤ 35 | CCOc1cc(C(=O)N[C@@H]2CCCOC2)ccc1Nc1cc2c(cn1)N(C)C(=O)c1ccccc1N2C [Compound 69]
≤ 0.05 | 50 to 75 | 70 to 85 | ≤ 35 | ≤ 35 | E (E is ≦35%) | ≤ 35 |  |  |  |  |  | COc1cc(C(=O)N2CCC(N(C)C)C2)ccc1Nc1cc2c(cn1)N(C)C(=O)c1ccccc1N2C (centres unmarked) [Compound 70]
≤ 0.05 |  | > 85 |  |  |  |  | > 90 | ≤ 35 | ≤ 35 | E (E is ≦35%) | ≤ 35 | CCOc1cc(C(=O)N2CCCNCC2)ccc1Nc1cc2c(cn1)N(C)C(=O)c1ccccc1N2C [Compound 71]
≤ 0.05 | 75 to 90 | 70 to 85 | ≤ 35 | ≤ 35 | E (E is ≦35%) | ≤ 35 |  |  |  |  |  | CCOc1cc(C(=O)N2CCC(F)C2)ccc1Nc1cc2c(cn1)N(C)C(=O)c1occc1N2C (centres unmarked) [Compound 72]
0.101 to 0.5 |  | < 70 |  |  |  |  | 75 to 90 | ≤ 35 | ≤ 35 | E (E is ≦35%) | ≤ 35 | COc1cc(NS(C)(=O)=O)ccc1Nc1cc2c(cn1)N(C)C(=O)c1ccccc1N2C [Compound 73]
